From patent publication US7897182B2, “Composition comprising bamboo extract and the compounds isolated therefrom showing treating and preventing activity for inflammatory and blood circulation disease” (Unigen, Inc., priority 2003, dated 2011)
In brackets after ≈: the same amount, converted by molar mass.

Tests used:
iNOS gene expression = iNOS gene expression in LPS-treated RAW 264.7 cells (RT-PCR); assay type: cell-based, Murine; conditions: for Inhibition of Gene expression (%) (iNOS): LPS, 24 hours
Experimental: To investigate the inhibiting effect on gene expression, the extract or compound of the present invention was treated to the cell and the RNA extracted therefrom was used in the RT-PCR to evaluate the quantitative gene expression. […] And RNA was extracted by conventional extraction method using Trizol reagent (Gibco BRL) to use in the following reverse transcription-polymerase chain reaction. RT-PCR was performed according to the RT reaction (25° C. 10 min, 48° C. 30 min, 95° C. 5 min, 4° C. 10 min; 1 cycle) and subsequent PCR (50° C. 2 min, 95° C. 10 min, 95° C. 15 sec, 60° C. 1 min, 40 cycles) method well known in the art. As an internal control, 18S ribosomal RNA was used.

[1] = system: LDL receptor defected mouse; assay: Blood lipid in LDL defected mouse on high fat diet; assay type: in vivo; conditions: lovastatin 4 mg/kg oral
Experimental: (§1) Eight-weeks old male LDL receptor defected mouse accumulated to high fat feed were divided into two dose administration groups and one high dosing group of which group consist of six mice per group, Injectable distilled water was used as a negative control group, lovastain well known to be as an atheriosclerosis treating agent was administrated in an amount of 4 mg/kg per body weight as a positive control group, Bamboo was administrated to two treatment group in an amount of 50 and 100 mg/kg per body weight respectively, and one high dosing treatment group in an amount of 500 mg/kg per body weight for 20 weeks by way of compulsory oral administration after weighing the body weight twice a day (See Table 6).
And then blood plasma was isolated by centrifugation at the speed of 11,000 g for 10 minutes and left alone at −70° C. before use. The value of blood lipid was determined by three categories i.e., TC (Total cholesterol), HDL-C (High-density lipoprotein cholesterol) and TG (Triglycerides) at KRIBB in Korea.

[2] = system: LDL receptor defected mouse; assay: Arteriosclerosis lesion area (Oil red O, aortic valve) in LDL defected mouse; assay type: in vivo; conditions: positive control, lovastatin 4 mg/kg
Experimental: During the experiment, the environment of the cage was maintained to the temperature of 23±2° C. and the relative humidity of […] under the artificial lamp for 12 hours, and less than five mice were bred in each mouse cage providing with free access to water (disinfected distilled water) and normal fatty feed (Harlan 2018S, Indianapolis USA).
as §1, with “6). […]” for “6).”
The calculation of lesion area was performed by staining the lesion formed at the position between 3rd cervical […] and aortic valve and photocopying and then the lesion area was calculated by using computer-assisted morphometry (TDI microscope Image Analyzer, USA) comparing with control group.

HUVEC = assay: Cell toxicity test, modified MTT method, HUVEC; assay type: cell-based, Human
Experimental: The cell toxicity of tricin compound of Example 5 was tested using modified MTT method (J. Immunological Methods, 119, pp 203-210, 1989).
200 μl of HUVEC (2×10^5 cells/ml) on flat bottom 96-well microtiter plates (Nunc, Sweden) were treated with tricin prepared in various concentrations and cultured at 37° C. for 24 hours.
50 μl of MTT solution (1 mg/ml) was added to each well and incubated at 37° C. for 4 hours. And then supernatant was removed.
To detect formazan crystal, 100 μl of DMSO was also added to each well and the colorigenic analysis was performed at 550 nm using microplate reader (Power wave-XS, Bio-Tek, USA).

NO production = assay: Inhibition of NO production in LPS-treated RAW 264.7 cells (Griess reagent); assay type: cell-based, Murine
Experimental: Murine macrophage cell line RAW 264.7 cell (ATCC, Rockville, Md., USA) were grown in DMEM (Gibco BRL Co., Ltd., USA), supplemented with 2.0 mM L-arginine, 100 μg/ml penicillin-streptomycin and 10% fetal bovine serum at 37° C. in 5% CO2 and 95% air condition in humidified incubator.
To test the inhibiting activity of bamboo extract and the compound isolated therefrom on nitric oxide (NO), which is one of inflammatory factors, the increase of NO was determined in the cells treated with extract or compound of the present invention.
200 μl of RAW 264.7 cells (1×10^6 cells/ml) were seeded onto each well of 96-well microtiter plate (Nunc, Sweden) and incubated for 3 hours in DMEM media containing 10% FBS. […]
And then 100 μl of cell supernatant of each well was transferred to new 96 well plate and 50 μl of Griess reagent (0.1% N-(1-naphtyl)ethylenediamine 2HCl, 1% sulfanilamide in 5% conc. H3PO4 in H2O) was added thereto followed by incubating for 10 mins at R.T. The absorbance was measured at 540 or 550 nm using ELISA reader (Power wave-XS, Bio-Tek, USA).

u-PA gene expression = assay: u-PA mRNA expression in HUVEC (quantitative PCR); assay type: cell-based, Human; conditions: for mRNA expression (fold), u-PA: HUVEC, control = 1
Experimental: (§2) RNA was isolated from HUVEC cell by Rneasy mini kit (cat#74103, Qiagen Co.) according to the manufacturer's instruction. And RT-PCT reaction was performed by using quantitative PCR method (SDS 7700, Applied biosystems Co., U.S.A.).
(§3) 5 μl of cDNA product obtained in the reverse transcription (RT) was aliquoted into each well of 96-well plate and then the mixture containing 5.6 mM MgCl2, 1×PCR buffer, 2 mM dNTP, 0.05% gelatin, 1 μM of a pair of each target gene primer or 0.16 μM of house keeping gene primer, 0.5 μM of target gene probe or 0.025 μM of housekeeping gene probe, 1.25 U of Taq polymerase was added thereto for polymerase chain reaction (PCR) (50° C. 2 min, 95° C. 10 min, 95° C. 15 sec, 60° C. 1 min, 40 cycles).
(§4) As the result, final cT value was read and calculated.

VEGF gene expression = assay: VEGF mRNA expression in HUVEC (quantitative PCR); assay type: cell-based, Human; conditions: for mRNA expression (fold), VEGF: HUVEC, control = 1
Experimental: as §2, §3, §4

eNOS gene expression = assay: eNOS mRNA expression in HUVEC (quantitative PCR); assay type: cell-based, Human; conditions: for mRNA expression (fold), eNOS: HUVEC, control = 1
Experimental: as §2, §3, §4

RAW 264.7 cells = assay: Cell viability at the tricin concentrations of the NO test (Table 9)
[3] = Mus musculus, RAW264.7, read-out: NO inhibition rate (%)

COc1cc(/C=C/C(=O)CC(=O)/C=C/c2ccc(O)c(OC)c2)ccc1O [Curcumin, curcumin]
Comparative iNOS expression (% of control, DMSO) (iNOS gene expression; 0.032 μg/ml): 80.5 % of control | Inhibition of Gene expression (%) (iNOS) (iNOS gene expression; 0.032 μg/ml): 40% | Comparative iNOS expression (% of control, DMSO) (iNOS gene expression; 0.16 μg/ml): 75.7 % of control | Inhibition of Gene expression (%) (iNOS) (iNOS gene expression; 0.16 μg/ml): 40% | Comparative iNOS expression (% of control, DMSO) (iNOS gene expression; 0.8 μg/ml): 64.4 % of control | Inhibition of Gene expression (%) (iNOS) (iNOS gene expression; 0.8 μg/ml): 40% | Comparative iNOS expression (% of control, DMSO) (iNOS gene expression; 4 μg/ml): 49.9 % of control | Inhibition of Gene expression (%) (iNOS) (iNOS gene expression; 4 μg/ml): 90% | Inhibition of Gene expression (%) (iNOS) (iNOS gene expression; 12.5 μg/ml): 90% | Comparative iNOS expression (% of control, DMSO) (iNOS gene expression; 20 μg/ml): 1.3 % of control | IC50 (iNOS gene expression; Mus musculus, RAW264.7, calculated from the expression data, read-out: IC50 (μg/ml) on iNOS gene expression): 5.3 µg/mL (≈ 14.4 µM) | concentration at which iNOS gene expression is inhibited by 90% (iNOS gene expression; real time-gene expression analysis): 4 µg/mL

CC[C@H](C)C(=O)O[C@H]1C[C@@H](C)C=C2C=C[C@H](C)[C@H](CC[C@@H]3C[C@@H](O)CC(=O)O3)[C@H]21 [Lovastatin, lovastatin]
HDL-C [1]: 25.00 ± 7.07 | LDL-C [1]: 3485.00 ± 304.06 | TC [1]: 3750.00 ± 42.43 | TG [1]: 300.00 ± 14.14 | inhibition of the formation of arteriosclerosis compared with control group [2]: about 47%

O=C(O)/C=C/c1ccc(O)cc1 [p-coumaric acid]
cellular toxicity, in words (HUVEC): no cellular toxicity

COc1cc(-c2cc(=O)c3c(O)cc(O)cc3o2)cc(OC)c1O [tricin]
NO inhibition, in words (NO production; 25, 12.5 and 6.5 μg/ml): strong NO inhibition rate | inhibition at 1.625 µg/mL (NO production; [3]): 25.9 ± 0.006% | inhibition at 3.25 µg/mL (NO production; [3]): 38.1 ± 0.005% | inhibition at 6.5 µg/mL (NO production; [3]): 52 ± 0.015% | inhibition at 25 µg/mL (NO production; [3]): 74.6 ± 0.009% | inhibition at 50 µg/mL (NO production; [3]): 49.7 ± 0.007% | inhibition at 12.5 µg/mL (NO production; Mus musculus, RAW264.7, tricin 12.5 μg/ml, read-out: NO inhibition rate (%)): 71.2 ± 0.003% | expression of u-PA gene in HUVEC, in words (u-PA gene expression): increased | mRNA expression (fold), u-PA (u-PA gene expression; tricin 0.5 μg/ml): 1.619 fold | mRNA expression (fold), u-PA (u-PA gene expression; tricin 1.0 μg/ml): 1.103 fold | mRNA expression (fold), u-PA (u-PA gene expression; tricin 5.0 μg/ml): 2.962 fold | expression of VEGF in HUVEC, in words (VEGF gene expression): increased | mRNA expression (fold), VEGF (VEGF gene expression; tricin 0.5 μg/ml): 2.046 fold | mRNA expression (fold), VEGF (VEGF gene expression; tricin 1.0 μg/ml): 1.469 fold | mRNA expression (fold), VEGF (VEGF gene expression; tricin 5.0 μg/ml): 1.545 fold | expression of eNOS in HUVEC, in words (eNOS gene expression): increased | mRNA expression (fold), eNOS (eNOS gene expression; tricin 0.5 μg/ml): 3.024 fold | mRNA expression (fold), eNOS (eNOS gene expression; tricin 1.0 μg/ml): 4.711 fold | mRNA expression (fold), eNOS (eNOS gene expression; tricin 5.0 μg/ml): 0.452 fold | cellular toxicity (HUVEC; HUVEC, 5 μg/ml, 24 hours, MTT): 51% | toxicity at the active concentrations, in words (RAW 264.7 cells; 25, 12.5 and 6.5 μg/ml): no toxicity | Cell viability (%) (RAW 264.7 cells; tricin 1.625 μg/ml): 126% | Cell viability (%) (RAW 264.7 cells; tricin 3.25 μg/ml): 99% | Cell viability (%) (RAW 264.7 cells; tricin 6.5 μg/ml): 96% | Cell viability (%) (RAW 264.7 cells; tricin 12.5 μg/ml): 92% | Cell viability (%) (RAW 264.7 cells; tricin 25 μg/ml): 80% | Cell viability (%) (RAW 264.7 cells; tricin 50 μg/ml): 49%
